# Results taken from patent US20040097408A1, “Compounds regulating cell proliferation and differentiation” (priority 2001, published 2004).
# Tests used:
# EpH-A6 cells = assay: cell cycle phases by BrdU incorporation / FACS; format: cell-based, mouse; settings: 3 μM F16, 30-36 hr, FIG. 5
# Procedure: The percentage of cells in the different phases of the cell cycle was assessed by measuring BrdU incorporation into the DNA of the cells. BrdU incorporation into DNA of untreated or F16 treated (3 μM/30-36 hr) EpH-EV and EpH-A6 cells was assessed by FACS as follows. After F16 or mock treatment, the cells were pulsed with BrdU (20 μM) for 1 hour and then fixed in 70% ethanol at −20° C. overnight. Next morning cells were washed twice with 1×PBS and the DNA was denatured by incubation of the cells in 2N HCl/0.5% Triton X-100. The cells were then washed twice in 0.1M Na2B2O7, and once in PBS. The cells were resuspended in PBS, incubated with 20 μL of anti-BrdU/FITC(Becton Dickinson) for 1 hour and subsequently washed with 1×PBS and resuspended in PBS. RNA was digested with RNaseA (1 μL of 10 mg/mL stock) at 37° C. for 30 minutes. Finally, the cells were diluted with 1 mL of 5 μg/mL propidium iodide/PBS and incubated on ice for 15 minutes. The labeled cells were analyzed using the FACSCalibur (Becton Dickinson).
# SKBR-3 = assay: cell count proliferation assay; format: cell-based; design: key: +: A positive scoring in these Tables represent cells in which a 2-5 and a 10-40 fold reduction in the total number of cells relative to the control untreated cells was observed after 3 and 7 days of culture with F16, respectively; settings: SKBR-3, human breast; F16 3 μM, cells counted after 3 and 7 days
# Source text: (§1) The following panel of mouse tumor cell lines derived from Neu, Ras and Myc transgenic mice and panel of human cancer cell lines were used: a) Neu-initiated mouse tumor cell lines NF980, NF324-2A, NF324-1B, SMF, NAF, Neu4145, n-Neu, Ras-initiated mouse tumor cell lines SH1,1, AC236, AC711, AC816, ACp53^−#1, ACp53^−4782, AC222, AC99, AC260, ACp53^−#19, ACp53^−#16, AC/Balb6.6, AC/Balb14, AC/Balb12 and Myc-initiated mouse tumor cell lines 16MB9a, 13MA1a; and b) human breast tumor cell lines MDA-MB231, MDA-MB435, MDA-MB436, MDA-MB453, MDA-MB-468, SKBR-3, MCF-7, T47D, ZR75; human prostate cancer cell lines LNCaP, PC-3, DU145 and the human ovarian cancer cell line SKOV-3.
# (§2) For each cell line, 10^5 cells were seeded in 4×6 well plates. Next day, F16 was added at 3 μM to the medium of 2 of the plates, while the other two were left untreated (control). Cells were counted 3 days and 7 days after initiation of treatment.
# (§3) A positive scoring in these Tables represent cells in which a 2-5 and a 10-40 fold reduction in the total number of cells relative to the control untreated cells was observed after 3 and 7 days of culture with F16, respectively.
# T47D = assay: cell count proliferation assay; format: cell-based; design: key: +: A positive scoring in these Tables represent cells in which a 2-5 and a 10-40 fold reduction in the total number of cells relative to the control untreated cells was observed after 3 and 7 days of culture with F16, respectively; settings: human breast, F16 3 μM, cells counted after 3 and 7 days
# Source text: as §1, §2, §3
# ZR75 = assay: cell count proliferation assay; format: cell-based; design: key: +: A positive scoring in these Tables represent cells in which a 2-5 and a 10-40 fold reduction in the total number of cells relative to the control untreated cells was observed after 3 and 7 days of culture with F16, respectively; settings: ZR75, human breast; F16 3 μM, cells counted after 3 and 7 days
# Source text: as §1, §2, §3
# MCF-7 = assay: cell count proliferation assay; format: cell-based; design: key: +: A positive scoring in these Tables represent cells in which a 2-5 and a 10-40 fold reduction in the total number of cells relative to the control untreated cells was observed after 3 and 7 days of culture with F16, respectively; settings: MCF-7, human breast; F16 3 μM, cells counted after 3 and 7 days
# Source text: as §1, §2, §3
# MDA-MB-436 = assay: cell count proliferation assay; format: cell-based; design: key: +: A positive scoring in these Tables represent cells in which a 2-5 and a 10-40 fold reduction in the total number of cells relative to the control untreated cells was observed after 3 and 7 days of culture with F16, respectively; settings: MDA-MB-436, human breast; F16 3 μM, cells counted after 3 and 7 days
# Source text: as §1, §2, §3
# MDA-MB-468 = assay: cell count proliferation assay; format: cell-based; design: key: +: A positive scoring in these Tables represent cells in which a 2-5 and a 10-40 fold reduction in the total number of cells relative to the control untreated cells was observed after 3 and 7 days of culture with F16, respectively; settings: MDA-MB-468, human breast; F16 3 μM, cells counted after 3 and 7 days
# Source text: as §1, §2, §3
# MDA-MB-453 = assay: cell count proliferation assay; format: cell-based; design: key: +: A positive scoring in these Tables represent cells in which a 2-5 and a 10-40 fold reduction in the total number of cells relative to the control untreated cells was observed after 3 and 7 days of culture with F16, respectively; settings: MDA-MB-453, human breast; F16 3 μM, cells counted after 3 and 7 days
# Source text: as §1, §2, §3
# [1] = system: EpH4-EV and EpH4-A6 cells; assay: intracellular colocalization with Mitotracker Red / Lysotracker Red / Hoescht; format: cell-based, mouse; settings: 3 μM F16, 2 hours
# Procedure: 2×10^4 EpH4-EV and EpH4-A6 cells were seeded in 6 well chamber slides. Next morning, cells were left untreated or treated with F16 at 3 μM for 2 hours. Cells were incubated with Hoescht stain for 30 minutes and then visualized under the microscope. Hoescht stain specifically stains the nuclei of cells. A mitochondrial specific stain, Mitotracker Red (Molecular Probes), was added to the medium to stain mitochondria, and Lysotracker Red to stain lysosomes and acidic compartments, according to manufacturer procedure. Hoescht stain was also included in the medium (together with the other stains). Cells were photographed under Axioskop (Zeiss) using a Spot Camera (Diagnostic Instruments).
# 16MB9a = assay: uptake/retention of F16 by fluorescence microscopy; format: cell-based, mouse; settings: 3 μM F16, 24 hours
# Procedure: (§4) The following cell lines were used in this Example: EpH4-A6 (Neu^T); EpH4-EV; Neu-initiated mouse tumor cell lines NF980, NAF and nNeu; Ras-initated tumor cell lines SH1.1 and AC816; a Myc-initiated tumor cell line 16MB9a; and normal mammary epethileal cells HC11, NuMg and EpH4. The cells were grown on 60 mm plates and incubated with medium alone or medium containing 3 μM F16 for 24 hours at 37° C. The fluorescence signal of F16 was visualized under inverted microscope Axiovert (Zeiss) using a standard fluorescein filter set. Cells were photographed using a digital camera D1 (Nikon).
# EpH4-A6 cells = assay: uptake/retention of F16 by fluorescence microscopy; format: cell-based, mouse; settings: 3 μM F16, 24 hours
# Procedure: as §4
smiles,measurement,setting,value
C[n+]1ccc(/C=C/c2c[nH]c3ccccc23)cc1.[I-] [F16],percentage of cells in G1 phase,EpH-A6 cells,increase
same,percentage of cells in the S phase,EpH-A6 cells,dramatic decrease
same,F16 response,SKBR-3,+
same,F16 response,T47D,+
same,F16 response,ZR75,+
same,F16 response,MCF-7,+
same,F16 response,MDA-MB-436,+
same,F16 response,MDA-MB-468,+
same,F16 response,MDA-MB-453,+
same,intracellular localization of F16 staining,[1],"overlapped with the mitochondrial staining, but not with the lysosomal staining"
same,uptake/retention of F16 (fluorescence),16MB9a,does not show fluoresence
same,uptake/retention of F16 (fluorescence),EpH4-A6 cells,very intense fluorescent green punctuated staining
